Our source for the IC50 values is US20240199546A1, “INHIBITORS OF SOLUTE CARRIER FAMILY 6A MEMBER 19 (SLC6A19) AND METHODS OF USE THEREOF” (Maze Therapeutics, Inc., priority 2022, published 2024).

The target of experiment [1] is T1, human SLC6A19 and TMEM27 (Homo sapiens, UniProt Q695T7).
T1 construct: expressed in transfected cells
T1 sequence (Q695T7 1-634): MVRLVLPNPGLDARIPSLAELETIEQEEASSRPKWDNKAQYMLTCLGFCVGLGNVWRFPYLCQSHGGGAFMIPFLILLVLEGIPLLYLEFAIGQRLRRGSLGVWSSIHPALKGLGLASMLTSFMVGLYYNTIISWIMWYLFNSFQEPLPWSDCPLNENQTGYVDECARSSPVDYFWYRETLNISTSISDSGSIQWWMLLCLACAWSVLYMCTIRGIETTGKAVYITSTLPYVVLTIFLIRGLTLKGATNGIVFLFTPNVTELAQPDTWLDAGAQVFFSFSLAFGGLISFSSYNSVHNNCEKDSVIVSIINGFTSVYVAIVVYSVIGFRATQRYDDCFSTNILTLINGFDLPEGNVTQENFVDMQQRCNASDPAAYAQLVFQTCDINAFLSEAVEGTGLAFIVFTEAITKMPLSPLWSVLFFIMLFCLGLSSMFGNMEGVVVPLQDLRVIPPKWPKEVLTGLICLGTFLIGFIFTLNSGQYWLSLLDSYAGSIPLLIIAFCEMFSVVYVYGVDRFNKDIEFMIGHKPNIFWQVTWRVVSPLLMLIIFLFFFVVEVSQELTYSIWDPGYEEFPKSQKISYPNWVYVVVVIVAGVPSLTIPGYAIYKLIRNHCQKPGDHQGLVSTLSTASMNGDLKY
T1 sequence (Q9HBJ8 15-222 partner): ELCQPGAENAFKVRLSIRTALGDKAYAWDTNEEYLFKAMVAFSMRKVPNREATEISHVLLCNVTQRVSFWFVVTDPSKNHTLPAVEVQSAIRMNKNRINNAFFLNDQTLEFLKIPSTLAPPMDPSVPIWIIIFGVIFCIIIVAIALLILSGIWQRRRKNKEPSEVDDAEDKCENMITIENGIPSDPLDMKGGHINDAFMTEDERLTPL
Nature of the experiment: Radiolabelled (3H) leucine uptake in CHO cells with doxycycline-inducible expression of human SLC6A19 and TMEM27 (Example B-1). Format: cell-based. The following applies: CHO cells with doxycycline-inducible expression of human SLC6A19 and TMEM27, read-out: SLC6A19_Radioligand Uptake Assay IC50. The procedure, abridged: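 CHO cells were induced with doxycycline for 18 h at 37 °C, washed in HBSS, then exposed to compounds for 1 h: 8-point, 3-fold dilutions in duplicate, 0.5% DMSO final. Uptake measured by scintillation counting after 2 h shaking. Activity normalized with positive control as 0% and DMSO as 100%.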

Experiment [2] deals with T1, human SLC6A19 and TMEM27. The experiment is described as follows: 13C6,15N-isoleucine uptake in CHO cells with doxycycline-inducible expression of human SLC6A19 and TMEM27, RapidFire mass spectrometry (Example B-2). Format: cell-based. The following applies: read-out: SLC6A19_RapidFire Uptake Assay IC50. The procedure, abridged: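 CHO cells induced overnight with doxycycline to express human SLC6A19 plus TMEM27; 20 min preincubation with compound (10-point 2-fold series, duplicate) at 37 °C in HEPES buffer pH 7.2, then 20 min with 13C6,15N-isoleucine. Intracellular label quantified by RapidFire MS against 13C-leucine standard; positive control defined 100% inhibition.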

Usually IC50 stands for the concentration at which inhibition is half-maximal.

For the molecule `Cc1nc(COc2cc3[nH]c(CNC(=O)C4CC4)cc3cc2F)co1` [Compound 549, N-((5-fluoro-6-((2-methyloxazol-4-yl)methoxy)-1H-indol-2-yl)methyl)cyclopropanecarboxamide], the half-inhibitory concentration (IC50) worked out at 426 nM on human SLC6A19 and TMEM27 [1]; 833 nM at human SLC6A19 and TMEM27 [2].
As to `Cc1ncc(COc2cc3[nH]c(CNC(=O)C4(C)CC4)cc3cc2F)s1` [Compound 13, N-((5-fluoro-6-((2-methylthiazol-5-yl)methoxy)-1H-indol-2-yl)methyl)-1-methylcyclopropane-1-carboxamide], the IC50 came to 637 nM at human SLC6A19 and TMEM27 [1]; 764 nM at human SLC6A19 and TMEM27 [2].
The corresponding values for `O=C(NCc1cc2cc(F)c(OCc3cscn3)cc2[nH]1)C1(F)CC1` [Compound 230, 1-fluoro-N-((5-fluoro-6-(thiazol-4-ylmethoxy)-1H-indol-2-yl)methyl)cyclopropane-1-carboxamide] are 69.6 nM and 22.9 nM.
The corresponding values for `CC1(C(=O)NCc2cc3c(F)cc(OCc4ccon4)cc3[nH]2)CC1` [Compound 27, N-((4-fluoro-6-(isoxazol-3-ylmethoxy)-1H-indol-2-yl)methyl)-1-methylcyclopropane-1-carboxamide] are 84 nM and 92 nM.
The corresponding values for `CC1(C(=O)NCc2cc3cc(Cl)c(CNc4ccon4)cc3[nH]2)CC1` [Compound 608, N-((5-chloro-6-((isoxazol-3-ylamino)methyl)-1H-indol-2-yl)methyl)-1-methylcyclopropane-1-carboxamide] are 304 nM and 457 nM.
Consider `CC1(C(=O)NCc2cc3cc(Cl)c(OCc4ccoc4)cc3[nH]2)CC1` [Compound 64, N-((5-chloro-6-(furan-3-ylmethoxy)-1H-indol-2-yl)methyl)-1-methylcyclopropane-1-carboxamide], for which the IC50 at human SLC6A19 and TMEM27 [1] amounted to 78 nM; at human SLC6A19 and TMEM27 [2] it was 24 nM.
The corresponding values for `Cc1cc(COc2cc3[nH]c(CNC(=O)C4CC4)cc3cc2Cl)no1` [Compound 133, N-((5-chloro-6-((5-methylisoxazol-3-yl)methoxy)-1H-indol-2-yl)methyl)cyclopropanecarboxamide] are 82 nM and 45 nM.
For the molecule `Cc1cc(COc2cc3[nH]c(CNC(=O)C4(C)CC4)cc3cc2C(F)(F)F)no1` [Compound 58, 1-methyl-N-((6-((5-methylisoxazol-3-yl)methoxy)-5-(trifluoromethyl)-1H-indol-2-yl)methyl)cyclopropanecarboxamide], the 50% inhibitory concentration (IC50) was 162 nM on human SLC6A19 and TMEM27 [1]; 28 nM at human SLC6A19 and TMEM27 [2].
Take `CC1(C(=O)NCc2cc3cc(Cl)c(OCc4ccsc4Cl)cc3[nH]2)CC1` [Compound 321, N-((5-chloro-6-((2-chlorothiophen-3-yl)methoxy)-1H-indol-2-yl)methyl)-1-methylcyclopropane-1-carboxamide]: the IC50 amounted to 891 nM on human SLC6A19 and TMEM27 [1]; 379 nM on human SLC6A19 and TMEM27 [2].
With `CCC(=O)NCc1cc2cc(F)c(OCc3cscn3)cc2[nH]1` [Compound 126, N-((5-fluoro-6-(thiazol-4-ylmethoxy)-1H-indol-2-yl)methyl)propionamide], the IC50 at human SLC6A19 and TMEM27 [1] was 97 nM; at human SLC6A19 and TMEM27 [2], 171 nM.
In the case of `CCc1c(CNC(=O)N2CCC2)[nH]c2cc(OCc3cscn3)c(Cl)cc12` [Compound 424, N-((5-chloro-3-ethyl-6-(thiazol-4-ylmethoxy)-1H-indol-2-yl)methyl)azetidine-1-carboxamide], the half-inhibitory concentration (IC50) at human SLC6A19 and TMEM27 [1] was 1260 nM; at human SLC6A19 and TMEM27 [2], 491 nM.
The corresponding values for `O=C(NCc1cc2cc(Cl)c(NCc3cscn3)cc2[nH]1)N1CCCC1` [Compound 414, N-((5-chloro-6-((thiazol-4-ylmethyl)amino)-1H-indol-2-yl)methyl)pyrrolidine-1-carboxamide] are 339 nM and 281 nM.
The corresponding values for `CC1(C(=O)NCc2cc3cc(F)c(OCc4ccccn4)cc3[nH]2)CC1` [Compound 330, N-((5-fluoro-6-(pyridin-2-ylmethoxy)-1H-indol-2-yl)methyl)-1-methylcyclopropane-1-carboxamide] are 167 nM and 123 nM.
The corresponding values for `CC(C)C(=O)NCc1cc2cc(Cl)c(OCc3cocn3)cc2[nH]1` [Compound 500, N-((5-chloro-6-(oxazol-4-ylmethoxy)-1H-indol-2-yl)methyl)isobutyramide] are 195 nM and 257 nM.
With `O=C(NCc1cc2cc(Cl)c(OCc3cocn3)cc2[nH]1)N1CCCC1` [Compound 113, N-((5-chloro-6-(oxazol-4-ylmethoxy)-1H-indol-2-yl)methyl)pyrrolidine-1-carboxamide], the IC50 at human SLC6A19 and TMEM27 [1] was 284 nM; on human SLC6A19 and TMEM27 [2] it was 174 nM.
The corresponding values for `Cc1cc(COc2cc3[nH]c(CNC(=O)C4(C)CC4)cc3cc2C)no1` [Compound 14, 1-methyl-N-((5-methyl-6-((5-methylisoxazol-3-yl)methoxy)-1H-indol-2-yl)methyl)cyclopropane-1-carboxamide] are 111 nM and 120 nM.
The corresponding values for `CC1CCN(C(=O)NCc2cc3ccc(OCc4ccon4)cc3[nH]2)C1` (stereo not shown) [Compound 121, N-((6-(isoxazol-3-ylmethoxy)-1H-indol-2-yl)methyl)-3-methylpyrrolidine-1-carboxamide] are 282 nM and 590 nM.
